# In patent US8093209B2, “Methods of suppressing microglial activation and systemic inflammatory responses” (Cognosci, Incorporated, priority 2002, dated 2012):
# Assays:
# LDL receptor = LDL receptor (Homo sapiens, UniProt P01130); details: lipid-free peptide; cited from earlier work
# [1] = tested on: primary rat neuronal/glial cultures exposed to NMDA; assay: NMDA-induced 45Ca uptake by primary neuronal-glial cultures; format: cell-based; details: 10 μM MK-801 pretreatment, 100 μM NMDA
# Description: (§1) Primary neuronal-glial cultures were prepared from fetal Sprague-Dawley rat brains at 18 days of gestation as previously described (Pearlstein et al., 1998). Brains were harvested from 10-15 pups and dissected to separate cortex from meninges and subcortical structures using anatomical landmarks. Cortices were pooled and minced into 2 mm^3 pieces in a buffered salt solution supplemented with 20 mM HEPES buffer, pH 7.4, containing 0.25% trypsin. The tissue was incubated for 20 minutes at 37° C. in a 5% CO2/95% room air atmosphere, and washed twice with ice-cold, glutamine-free minimum essential medium (MEM; Life Technologies) containing 15 mM glucose, 5% fetal bovine serum (GIBCO), 5% horse serum (GIBCO), and 1% DNase-I (Sigma Chemical Co., St. Louis, Mo., USA). Tissue pieces were dissociated by trituration through a fire-polished 9-inch Pasteur pipette (I.D.=0.7 mm). The resultant suspension was centrifuged at 50×g for 10 min, the supernatant discarded, and the pellet resuspended in growth medium (MEM supplemented with 15 mM glucose, 5% fetal bovine serum, and 5% horse serum). The dissociated cells were plated to achieve a confluent monolayer using 4×10^5 cells per well in poly-D-lysine coated, 24-well culture plates (Falcon 3047; Becton Dickinson Co., Lincoln Park, N.J., USA). Cultures were maintained undisturbed at 37° C. in a humidified 5% CO2/95% room air atmosphere for 13-16 days prior to use.
# Cellular calcium uptake from the extracellular space was assessed using ^45CaCl2 (American Radiolabeled Chemicals, St. Louis, Mo.). After washing the cultures with Mg^2+-free BSS containing 20 mM HEPES buffer, 6 μM peptide or 10 μM MK-801 was added to each well prior to and removed at the end of 100 μM NMDA exposure. ^45Ca (0.28 μCi/ml, 0.9 μCi/well) was added to each well immediately prior to NMDA exposure. The cultures were returned to the incubator and maintained at 37° C. Twenty minutes later, the exposure medium was removed and each well was washed 3 times with ice-cold Mg^2+-free BSS containing 20 mM HEPES buffer. The cells were subsequently lysed by addition of 0.2% sodium dodecyl sulfate (SDS). An aliquot from each well was added to a liquid scintillation vial containing 10 ml Cytoscint™ (ICN, Biochemical Research Product, CA) and radioactivity was determined by scintillation counting and normalized to cell count.
# [2] = tested on: thioglycollate-elicited peritoneal macrophages; assay: [Ca2+]i in Fura-2/AM treated single macrophages, digital imaging microscopy (Example 10); format: cell-based, mouse; details: 1000-fold molar excess RAP, 10 mM NiCl2, or 1 μg/ml pertussis toxin 12 h
# Description: (§2) Macrophage Harvesting. All experiments involving animals were first approved by the Duke Institutional Animal Care and Use Committee. Pathogen-free female C57BL/6 mice and ApoE deficient mice previously backcrossed 10 times to the C57BL/6 strain were obtained from the Jackson Laboratory (Bar Harbor, Me.). Thioglycollate-elicited peritoneal macrophages were harvested by peritoneal lavage using 10 ml of ice-cold Hanks' balanced salt solution containing 10 mM HEPES and 3.5 mM NaHCO3 (HHBSS), pH 7.4. The macrophages were pelleted by centrifugation at 4° C. at ˜800×g for 10 min and resuspended in RPMI 1640 media supplemented with 25 mM HEPES, 12.5 U/ml penicillin, 6.5 mg/ml streptomycin, and 5% fetal bovine serum.
# Measurement of [Ca^2+]i in apoE and peptide treated macrophage. Changes in [Ca^2+]i levels in Fura-2/AM treated single cells were quantified using digital imaging microscopy in accordance with known techniques. Macrophages were plated on glass coverslips sitting in 35 mm Petri dishes at a density of 1.5×10^5 cells/cm^2, and allowed to adhere for 2 h in a humidified 5% CO2 incubator at 37° C. The non-adherent cells were aspirated and the monolayers were washed twice with HHBSS. 4 μM Fura-2/AM was incubated with the cells for thirty min in the dark at room temperature and [Ca^2+]i was subsequently measured using a digital imaging microscope in accordance with known techniques. […] To determine if signaling resulted from ligation of the ligand to LRP, cells were preincubated with a 1000-fold molar excess of RAP or 10 mM NiCl2, both of which inhibit ligand binding to LRP, for 5 min prior to stimulation with apoE or peptide. In experiments in which the involvement of a G protein was assessed, monolayers were incubated with 1 μg/ml pertussis toxin for 12 h at 37° C. and Ca^2+ measurements were made as stated above.
# [3] = tested on: primary rat neuronal/glial cultures exposed to NMDA; assay: NMDA-induced LDH release in primary neuronal-glial cultures; format: cell-based; details: 6 μM peptide, 100 μM NMDA
# Description: as §1
# Mature cultures (13-16 days in vitro) were washed with Mg^2+-free buffered salt solution (BSS) containing 20 mM HEPES buffer (pH7.4) and 1.8 mM CaCl2, prior to the addition of NMDA. Following NMDA exposure, cultures were maintained for 30 minutes at 37° C. in a 5% CO2/95% air atmosphere. The medium containing NMDA was then removed and replaced with MEM supplemented with 20 mM glucose. The cultures were returned to the incubator for 24 h. In all experiments, cellular damage was assessed at 24 h after exposure to NMDA by measurement of the activity of lactate dehydrogenase (LDH) released into the medium as described below. The non-competitive NMDA receptor antagonist, MK-801 (Tocris Cookson Ins., St. Louis, Mo.) at a concentration of 10 μM was used as a positive control. Preliminary dose-response studies were performed to determine the concentration of NMDA (100 μM) required to effect a near-maximal LDH release (ED90) as used in the present study.
# The effect of human recombinant apoE (Panverra, Madison, Wis.) on 100 μM NMDA-induced LDH release was assessed and the dose-response curve was obtained (apoE: 0.1-10 μM final concentration). ApoE3, the most common human isoform, was added to the cultures 30 minutes prior to and removed following NMDA exposure. The effect of apoE peptide (133-149) on NMDA (100 μM or 300 μM)-induced LDH release was next assessed and the dose-response curve was obtained in a separate set of sister cultures that were simultaneously treated under one of the following conditions: (1) various doses of peptide (0.3 μM, 1 μM, 3 μM, 6 μM, 10 μM final concentration) were added to the culture immediately prior to and removed at the end of NMDA exposure; (2) no peptide, NMDA exposure; (3) no peptide, no NMDA exposure; (4) no peptide, NMDA exposure with 10 μM MK-801 for 30 minutes. The effect of a scrambled control peptide on NMDA-induced LDH release was similarly assessed.
# The effect of time of administration of apoE peptide (133-149) on NMDA-induced LDH release was assessed in a separate set of sister cultures that were simultaneously treated under one of following conditions: (1) peptide was added to the culture medium 24 h prior to and removed immediately before exposure to NMDA; (2) peptide was added immediately prior to and removed at the end of the NMDA exposure; (3) peptide was added immediately following the 30 minutes NMDA exposure; (4) no peptide, NMDA exposure; (5) no peptide, no NMDA exposure. […]
# [4] = tested on: enriched microglia primary cultures from apoE deficient mouse pups; assay: LPS-stimulated nitric oxide (nitrite) secretion by enriched microglia primary cultures; format: cell-based; details: peptide dose of 2 mM, LPS 100 ng/ml
# Description: Culture preparation and characterization: Mixed glial cell cultures were prepared from: (a) wildtype (C57B16; Jackson Laboratories) mouse pups; (b) ApoE deficient mutant mouse pups (ApoE-deficient mice), and (c) transgenic mouse pups expressing human ApoE3 but not murine ApoE (ApoE3 mice). See Xu et al., Neurobiol. Dis. 3:229 (1996) regarding the creation and characterization of the transgenic mice. Mixed glial cell cultures were prepared as has been described. See McMillian et al., Neurochem. 58:1308 (1992); Laskowitz et al., J. Neuroimmunol. 76:70 (1997). Briefly, brains were removed from 2-4 day old pups, cleaned of membranes and blood vessels, mechanically dispersed in Ca^+2-free media, and collected by centrifugation. Cells were then plated in DMEM/F12 (containing 10% fetal calf serum, 1% penicillin/streptomycin, Gibco #15070), one brain per 25 cm flask. […]
# Nitrite Quantification The production of NO was assessed by measuring the accumulation of nitrite, which was quantified using a calorimetric reaction with Griess reagent (0.1% N-1-naphthylethylenediamine dihydrochloride, 1% sulfanilamide, and 2.5% H3PO4). Absorbance was measured at 570 nm by spectrophotometry. […]
# Enriched microglia primary cultures were prepared from the brains of apoE deficient mouse pups as described in Example 1, above. […] Nitric oxide production was assessed as described in Example 1. […]
# [5] = tested on: thioglycollate-elicited peritoneal macrophages; assay: IP3 formation in myo-[2-3H]inositol-labeled macrophages (Example 10); format: cell-based, mouse; details: pertussis toxin pretreatment
# Description: as §2, with “serum. Cell viability was determined by the trypan blue exclusion method and was consistently greater then 95%.” for “serum.”
# Measurement of IP3 in apoE treated macrophage and effect of pertussis toxin. The formation of IP3 in myo-[2-^3H]inositol-labeled macrophages under various experimental conditions was quantified in accordance with known techniques. Macrophage were plated in 6 well plates (4×10^6 cells/well) and allowed to adhere at 37° C. for 2 h in a humidified 5% CO2 incubator. Medium was aspirated from the monolayers and RPMI 1640 medium containing 0.25% BSA and myo-[2-^3H]inositol (specific activity 10-20 Ci/mmol) was added to each well. […] Radioactivity was determined by placing aliquots in a liquid scintillation counter to determine radioactivity. […] The effect on IP3 formation was measured as described above.
# Sequence of LDL receptor (P01130 22-860, species assumed): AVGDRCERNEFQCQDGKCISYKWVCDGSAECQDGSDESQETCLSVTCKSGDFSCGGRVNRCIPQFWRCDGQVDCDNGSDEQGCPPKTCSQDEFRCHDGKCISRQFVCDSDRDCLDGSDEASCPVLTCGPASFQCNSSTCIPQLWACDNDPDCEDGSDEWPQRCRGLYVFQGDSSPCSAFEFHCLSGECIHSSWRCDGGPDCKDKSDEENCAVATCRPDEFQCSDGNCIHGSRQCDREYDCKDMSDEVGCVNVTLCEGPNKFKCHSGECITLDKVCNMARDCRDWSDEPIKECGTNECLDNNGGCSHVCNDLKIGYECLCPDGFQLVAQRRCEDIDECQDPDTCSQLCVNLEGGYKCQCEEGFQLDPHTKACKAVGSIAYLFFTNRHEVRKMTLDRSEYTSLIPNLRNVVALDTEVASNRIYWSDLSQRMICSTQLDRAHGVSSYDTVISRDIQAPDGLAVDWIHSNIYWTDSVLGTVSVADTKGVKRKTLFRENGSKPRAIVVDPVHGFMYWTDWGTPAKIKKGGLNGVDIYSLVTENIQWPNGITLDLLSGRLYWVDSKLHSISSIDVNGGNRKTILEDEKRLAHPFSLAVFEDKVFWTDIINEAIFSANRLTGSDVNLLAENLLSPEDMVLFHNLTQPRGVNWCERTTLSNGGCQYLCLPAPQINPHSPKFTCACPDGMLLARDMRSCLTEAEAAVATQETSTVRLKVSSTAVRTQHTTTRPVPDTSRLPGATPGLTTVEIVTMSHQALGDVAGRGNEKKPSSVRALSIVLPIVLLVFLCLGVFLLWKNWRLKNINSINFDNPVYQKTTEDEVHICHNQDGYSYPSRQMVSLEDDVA
compound,measurement,setting,value
141-155 dimer: dimeric peptide of ApoE residues 141-155 (Dyer et al.),LDL receptor binding,LDL receptor,~1 % of LDL activity
"141-155 monomer: lipid-free synthetic peptide comprising residues 141-155 of ApoE (Dyer et al.) (LRKLRKRLLRDADDL; UniProt P02649 159-173, looked up, fragment)",LDL receptor binding activity,LDL receptor,No binding activity was observed
"C[C@]12N[C@H](Cc3ccccc31)c1ccccc12 [MK-801, reference compound]",NMDA-induced calcium influx,[1],completely reversed
"[Cl][Ni][Cl] [Ni^+2, NiCl2, reference compound]",effect of preincubation on apoE-induced [Ca2+]i increase,[2],markedly attenuated the [Ca^2+]i increases
"ApoE (136-149): 14 amino acid peptide, three amino-terminal residues removed from ApoE (133-149) (Ac-RLASHLRKLRKRLL-NH2; listed as Homo sapiens)","protection against NMDA-induced cell damage, truncated peptides",[3],modest protection against NMDA toxicity
"ApoE (139-149): 11-residue peptide, six amino-terminal residues removed from ApoE (133-149) (Ac-SHLRKLRKRLL-NH2; listed as Homo sapiens)","protection against NMDA-induced cell damage, truncated peptides",[3],no detectable bioactivity
"LRKLRKRLL (fragment of ApoE containing LDL receptor binding site) [SEQ ID NO:2, 9-mer monomer, ApoE positions 141-149, used as control]",nitric oxide secretion by activated microglia,[4],did not result in any apparent decrease in nitric oxide secretion
pertussis toxin [reference compound],effect of preincubation on apoE-induced [Ca2+]i increase,[2],markedly attenuated the ApoE-dependent Ca^2+ response
same,effect of pretreatment on apoE-induced IP3 increase,[5],completely abolished this increase in IP3
